{"source": "patent US11214803B2", "about": "“Modulators of YAP1 expression” (Ionis Pharmaceuticals, Inc., priority 2019, dated 2022)", "system": "Yap1 mRNA", "assay": "Dose-dependent inhibition of human Yap1 in A-431 cells (Example 7, 10,000 cells per well, RTS36584)", "format": "cell-based", "conditions": "free uptake", "protocol": "Modified oligonucleotides described in the studies above were tested at various doses in A-431 cells. Cultured A-431 cells at a density of 10,000 cells per well were treated using free uptake with modified oligonucleotides diluted to concentrations described in the tables below. After approximately 48 hours, Yap1 mRNA levels were measured as previously described using the Human Yap1 primer-probe set RTS36584. Yap1 mRNA levels were normalized to total RNA content, as measured by RIBOGREEN®. Results are presented in the tables below as percent control of the amount of Yap1 mRNA relative to untreated control cells (% UTC). IC50s were calculated using a linear regression on a log/linear plot of the data in excel.", "key": {"[1]": {"conditions": "Table 59, 15.6 nM, A-431 cells 10,000 cells per well, 48 hours"}, "[2]": {"conditions": "Table 59, 62.5 nM, A-431 cells 10,000 cells per well, 48 hours"}, "[3]": {"conditions": "Table 59, 4000.00 nM, A-431 cells 10,000 cells per well, 48 hours"}, "[4]": {"conditions": "Table 59, A-431 cells 10,000 cells per well"}, "[5]": {"conditions": "Table 57, 15.6 nM, A-431 cells 10,000 cells per well, 48 hours"}, "[6]": {"conditions": "Table 57, 62.5 nM, A-431 cells 10,000 cells per well, 48 hours"}, "[7]": {"conditions": "Table 57, 4000.00 nM, A-431 cells 10,000 cells per well, 48 hours"}, "[8]": {"conditions": "Table 57, A-431 cells 10,000 cells per well"}, "[9]": {"conditions": "15.6 nM, A-431 cells, 10,000 cells per well, approximately 48 hours"}, "[10]": {"conditions": "62.5 nM, A-431 cells, 10,000 cells per well, approximately 48 hours"}, "[11]": {"conditions": "4000.00 nM, A-431 cells, 10,000 cells per well, approximately 48 hours"}, "[12]": {"conditions": "A-431 cells, approximately 48 hours, linear regression on log/linear plot"}}, "note": "Strand notation (5' to 3'): a small letter for the sugar, then the base; units joined by * are phosphorothioate-linked, units joined directly phosphodiester-linked; [ ] holds rarer units or linkages, { } end groups; capitals alone tell only the bases. k = constrained ethyl (cEt); [5mC] = 5-methylcytosine; d = 2'-deoxy (DNA)", "data": [{"substance": "958533 (kG*k[5mC]*kA*dT*dA*dG*dA*dA*dG*dT*dA*dG*dG*kA*kG*k[5mC]; antisense) [compound 958533]", "values": [{"measurement": "Yap1 mRNA, % UTC", "setting": "[1]", "value": 99, "unit": "% UTC"}, {"measurement": "Yap1 mRNA, % UTC", "setting": "[2]", "value": 61, "unit": "% UTC"}, {"measurement": "Yap1 mRNA, % UTC", "setting": "[3]", "value": 12, "unit": "% UTC"}, {"measurement": "IC50", "setting": "[4]", "value": 0.1, "unit": "µM"}]}, {"substance": "958758 (k[5mC]*kT*kA*dT*dT*d[5mC]*dA*dG*dT*dG*dA*dT*d[5mC]*kT*kG*k[5mC]; antisense) [compound 958758]", "values": [{"measurement": "Yap1 mRNA, % UTC", "setting": "[1]", "value": 83, "unit": "% UTC"}, {"measurement": "Yap1 mRNA, % UTC", "setting": "[2]", "value": 66, "unit": "% UTC"}, {"measurement": "Yap1 mRNA, % UTC", "setting": "[3]", "value": 12, "unit": "% UTC"}, {"measurement": "IC50", "setting": "[4]", "value": 0.1, "unit": "µM"}]}, {"substance": "958761 (kA*kG*kT*d[5mC]*dT*d[5mC]*dA*dA*d[5mC]*dA*dA*d[5mC]*d[5mC]*kT*kT*k[5mC]; antisense) [compound 958761]", "values": [{"measurement": "Yap1 mRNA, % UTC", "setting": "[5]", "value": 84, "unit": "% UTC"}, {"measurement": "Yap1 mRNA, % UTC", "setting": "[6]", "value": 73, "unit": "% UTC"}, {"measurement": "Yap1 mRNA, % UTC", "setting": "[7]", "value": 24, "unit": "% UTC"}, {"measurement": "IC50", "setting": "[8]", "value": 0.2, "unit": "µM"}]}, {"substance": "958567 (kT*k[5mC]*kA*dA*d[5mC]*d[5mC]*dT*dA*dT*dG*dA*dA*d[5mC]*kT*kA*kT; antisense) [compound 958567]", "values": [{"measurement": "Yap1 mRNA, % UTC", "setting": "Table 58, 15.6 nM, A-431 cells 10,000 cells per well, 48 hours", "value": 99, "unit": "% UTC"}, {"measurement": "Yap1 mRNA, % UTC", "setting": "Table 58, 62.5 nM, A-431 cells 10,000 cells per well, 48 hours", "value": 80, "unit": "% UTC"}, {"measurement": "Yap1 mRNA, % UTC", "setting": "Table 58, 4000.00 nM, A-431 cells 10,000 cells per well, 48 hours", "value": 16, "unit": "% UTC"}, {"measurement": "IC50", "setting": "Table 58, A-431 cells 10,000 cells per well", "value": 0.2, "unit": "µM"}]}, {"substance": "958578 (k[5mC]*kT*kT*dA*dA*dT*d[5mC]*dT*dG*dT*dG*dG*d[5mC]*kT*kA*k[5mC]; antisense) [compound 958578]", "values": [{"measurement": "Yap1 mRNA, % UTC", "setting": "Table 60, 15.6 nM, A-431 cells 10,000 cells per well, 48 hours", "value": 78, "unit": "% UTC"}, {"measurement": "Yap1 mRNA, % UTC", "setting": "Table 60, 62.5 nM, A-431 cells 10,000 cells per well, 48 hours", "value": 52, "unit": "% UTC"}, {"measurement": "Yap1 mRNA, % UTC", "setting": "Table 60, 4000.00 nM, A-431 cells 10,000 cells per well, 48 hours", "value": 10, "unit": "% UTC"}, {"measurement": "IC50", "setting": "Table 60, A-431 cells 10,000 cells per well", "value": 0.1, "unit": "µM"}]}, {"substance": "958731 (kG*k[5mC]*kT*d[5mC]*dT*dG*dT*d[5mC]*dA*dG*dT*dT*dA*kT*k[5mC]*k[5mC]; antisense) [compound 958731]", "values": [{"measurement": "Yap1 mRNA, % UTC", "setting": "[5]", "value": 85, "unit": "% UTC"}, {"measurement": "Yap1 mRNA, % UTC", "setting": "[6]", "value": 64, "unit": "% UTC"}, {"measurement": "Yap1 mRNA, % UTC", "setting": "[7]", "value": 19, "unit": "% UTC"}, {"measurement": "IC50", "setting": "[8]", "value": 0.1, "unit": "µM"}]}, {"substance": "958541 (kG*kT*kA*dT*dT*d[5mC]*dT*dA*dT*d[5mC]*d[5mC]*dA*dG*kG*kG*kT; antisense) [compound 958541]", "values": [{"measurement": "Yap1 mRNA, % UTC", "setting": "[5]", "value": 81, "unit": "% UTC"}, {"measurement": "Yap1 mRNA, % UTC", "setting": "[6]", "value": 51, "unit": "% UTC"}, {"measurement": "Yap1 mRNA, % UTC", "setting": "[7]", "value": 9, "unit": "% UTC"}, {"measurement": "IC50", "setting": "[8]", "value": 0.1, "unit": "µM"}]}, {"substance": "958529 (k[5mC]*kA*kA*dG*dT*d[5mC]*dT*dT*dG*dT*dA*dA*dG*kT*kA*kA; antisense) [compound 958529]", "values": [{"measurement": "Yap1 mRNA, % UTC", "setting": "Table 61, 15.6 nM, A-431 cells 10,000 cells per well, 48 hours", "value": 103, "unit": "% UTC"}, {"measurement": "Yap1 mRNA, % UTC", "setting": "Table 61, 62.5 nM, A-431 cells 10,000 cells per well, 48 hours", "value": 64, "unit": "% UTC"}, {"measurement": "Yap1 mRNA, % UTC", "setting": "Table 61, 4000.00 nM, A-431 cells 10,000 cells per well, 48 hours", "value": 11, "unit": "% UTC"}, {"measurement": "IC50", "setting": "Table 61, A-431 cells 10,000 cells per well", "value": 0.1, "unit": "µM"}]}, {"substance": "958597 (k[5mC]*k[5mC]*k[5mC]*dA*dA*dT*dA*d[5mC]*dA*dA*d[5mC]*d[5mC]*dA*kA*kG*kA; antisense) [compound 958597]", "values": [{"measurement": "Yap1 mRNA, % UTC", "setting": "[1]", "value": 104, "unit": "% UTC"}, {"measurement": "Yap1 mRNA, % UTC", "setting": "[2]", "value": 46, "unit": "% UTC"}, {"measurement": "Yap1 mRNA, % UTC", "setting": "[3]", "value": 20, "unit": "% UTC"}, {"measurement": "IC50", "setting": "[4]", "value": 0.2, "unit": "µM"}]}, {"substance": "958737 (kG*kG*kA*dA*dT*dA*d[5mC]*dA*dA*dG*d[5mC]*d[5mC]*d[5mC]*kG*kA*kG; antisense) [compound 958737]", "values": [{"measurement": "Yap1 mRNA, % UTC", "setting": "[1]", "value": 104, "unit": "% UTC"}, {"measurement": "Yap1 mRNA, % UTC", "setting": "[2]", "value": 92, "unit": "% UTC"}, {"measurement": "Yap1 mRNA, % UTC", "setting": "[3]", "value": 29, "unit": "% UTC"}, {"measurement": "IC50", "setting": "[4]", "value": 0.4, "unit": "µM"}]}, {"substance": "958819 (kT*kG*k[5mC]*dT*dT*d[5mC]*dA*dA*d[5mC]*dA*dT*dT*dG*kT*kT*k[5mC]; antisense) [compound 958819]", "values": [{"measurement": "Yap1 mRNA, % UTC", "setting": "[9]", "value": 79, "unit": "% UTC"}, {"measurement": "Yap1 mRNA, % UTC", "setting": "[10]", "value": 63, "unit": "% UTC"}, {"measurement": "Yap1 mRNA, % UTC", "setting": "[11]", "value": 19, "unit": "% UTC"}, {"measurement": "IC50", "setting": "[12]", "value": 0.1, "unit": "µM"}]}, {"substance": "958735 (kA*kG*k[5mC]*dA*dA*dT*d[5mC]*dT*dT*dG*dT*dG*dG*kA*kT*k[5mC]; antisense) [compound 958735]", "values": [{"measurement": "Yap1 mRNA, % UTC", "setting": "[9]", "value": 116, "unit": "% UTC"}, {"measurement": "Yap1 mRNA, % UTC", "setting": "[10]", "value": 69, "unit": "% UTC"}, {"measurement": "Yap1 mRNA, % UTC", "setting": "[11]", "value": 23, "unit": "% UTC"}, {"measurement": "IC50", "setting": "[12]", "value": 0.2, "unit": "µM"}]}, {"substance": "958476 (kT*kT*k[5mC]*d[5mC]*dG*dG*dT*dG*d[5mC]*dA*dT*dG*dT*kG*kT*k[5mC]; antisense) [compound 958476]", "values": [{"measurement": "Yap1 mRNA, % UTC", "setting": "Table 56, 15.6 nM, A-431 cells 10,000 cells per well, 48 hours", "value": 71, "unit": "% UTC"}, {"measurement": "Yap1 mRNA, % UTC", "setting": "Table 56, 62.5 nM, A-431 cells 10,000 cells per well, 48 hours", "value": 30, "unit": "% UTC"}, {"measurement": "Yap1 mRNA, % UTC", "setting": "Table 56, 4000.00 nM, A-431 cells 10,000 cells per well, 48 hours", "value": 6, "unit": "% UTC"}, {"measurement": "IC50", "setting": "Table 56, A-431 cells 10,000 cells per well", "value": 0.03, "unit": "µM"}]}, {"substance": "958500 (kT*k[5mC]*kT*dA*dT*dA*dT*dT*dA*dG*dA*dG*dT*kA*kT*kG) [compound 958500]", "values": [{"measurement": "Yap1 mRNA, % UTC", "setting": "[9]", "value": 91, "unit": "% UTC"}, {"measurement": "Yap1 mRNA, % UTC", "setting": "[10]", "value": 63, "unit": "% UTC"}, {"measurement": "Yap1 mRNA, % UTC", "setting": "[11]", "value": 16, "unit": "% UTC"}, {"measurement": "IC50", "setting": "[12]", "value": 0.1, "unit": "µM"}]}]}
